Assay: Storage stability and micronization of crystalline material from the cubic dosing curve crystallization
Format: physicochemical
Details: crystalline material obtained from ethanol/water by cubic dosing curve crystallization

- stability during storage: good stability
Compound: CC(C)(O)CCn1cc2cc(NC(=O)c3cccc(C(F)(F)F)n3)c(C(C)(C)O)cc2n1 [compound (I), N-[2-(3-Hydroxy-3-methylbutyl)-6-(2-hydroxypropan-2-yl)-2H-indazol-5-yl]-6-(trifluoromethyl)pyridine-2-carboxamide]

From patent US10501437B2 (Bayer Pharma Aktiengesellschaft, priority 2016, dated 2019)
